Experimental data from patent US20160088853A1, “Ultraviolet Disinfection of Produce, Liquids and Surfaces” (DREXEL UNIVERSITY, priority 2013, published 2016).
Where two headings read alike, the source gives them in different places.

Key:
[1] = tested on: bacterial and fungal strains; conditions: riboflavin with UV 365 nm, artificial surface; cited from earlier work
[2] = in the presence of fructose, model apple juice system; cited from earlier work
[3] = Solution absorbance at 254 nm; assay type: physicochemical
[4] = for fluorescence decay rate constant: 1 μM fluorescein, UV; for change in relative fluorescence intensity: 12 minutes of UV exposure
Procedure: In this example, fluorescein dye was used to detect the presence of free radicals, since interactions of oxidizing free radicals with fluorescein quench the fluorescence signal intensity. A fluorescein dye solution (4 μg/L) containing 0.4% (w/v) fructose and a fluorescein dye solution (4 μg/L) without fructose (control) were exposed to UV radiation at wavelength of 254 nm.
A batch-UV processing unit (Spectronics Spectrolinker XL-1500 UV Crosslinker, Westbury, N.Y.) was used for Examples 5-10. The apparatus consisted of 5 UV lamps (254 nm, 15 W, Spectronics Corporation, Westbury, N.Y.) that generated a UV intensity of approximately 20 mW/cm^2 at the surface of exposure mounted within a shielded box (46.4×15.9×31.8 cm). Fluorescence intensity measurement noise was minimized by allowing the lamps to warm up for at least 15 minutes prior to taking measurements.
The test fluorescein solution with approximately 1 μM fluorescein was prepared in deionized water (pH 6.3) or 100 mM buffer at pH 6. […] Specifically, treatments were carried out by adding a 10.0 ml solution into an uncovered glass petri dish and exposing it to UV radiation for various amounts of time (0-12 minutes) in the UV processing unit. The samples in the petri dish were stirred to achieve uniform exposure to UV light. Ambient room temperature (20-22° C.) was used for the treatments. To measure the fluorescence intensity of the solution, at each time interval, 100 μl of the sample was pipetted from the petri dish into a well of a 96-well plate optimized for fluorescence measurement. Fluorescence was measured in a Gemini XPS fluorescence micro-plate reader (Molecular Devices, Sunnyvale, Calif.) with excitation and emission wavelengths of 485 nm and 510 nm, respectively. All the fluorescence values were normalized using Eq. (1):
where I0=fluorescence intensity at time t=0 minutes and It=fluorescence intensity after ‘t’ minutes of UV exposure.

E. coli BL-21 = test: UV inactivation of E. coli BL-21 suspension, plate count; assay type: cell-based; conditions: 1% (w/v) gallic acid, UV 10 seconds, 109 CFU/mL in phosphate buffer, FIG. 6
Procedure: E. coli BL-21 was suspended in phosphate buffer at the level of 10^9 CFU/mL. Gallic acid was incorporated into bacterial suspension at the level of 1% (w/v). This suspension was exposed to UV light (intensity of 4 mJ/cm^2) for 10 seconds. The control experiment was performed in the exact same manner except for addition of gallic acid. After UV treatment, the cells were separated from the buffer through centrifugation and bacterial inactivation was measured using a plate count technique.

E. coli 0157:H7 = conditions: in lettuce; cited from earlier work

**Q.** For `Cc1cc2nc3c(=O)[nH]c(=O)nc-3n(C[C@H](O)[C@H](O)[C@H](O)CO)c2cc1C` [Riboflavin], which “inactivation of bacterial and fungal strains” value [1] is on record?
**A.** effective in inactivating most of the bacterial and fungal strains

**Q.** What does the source list for `O=C(CO)[C@@H](O)[C@H](O)[C@H](O)CO` [fructose]?
**A.** UV induced rate of degradation of patulin [2]: increased; average absorbance at 254 nm ([3]; 500 mM solution): 0.12; fluorescence decay rate constant ([4]; 10 mM fructose): 0.16 ± 0.01 min⁻¹; fluorescence decay rate constant ([4]; 20 mM fructose): 0.27 ± 0.02 min⁻¹; fluorescence decay rate constant ([4]; 100 mM fructose): 0.91 ± 0.02 min⁻¹; fluorescence decay rate constant ([4]; 300 mM fructose): 2.1 ± 0.06 min⁻¹; fluorescence decay rate constant ([4]; 500 mM fructose): 2.4 ± 0.13 min⁻¹; fluorescence lost ([4]; 500 mM fructose, within 2 minutes of UV exposure, FIG. 10A): more than 90%

**Q.** For `c1ccoc1` [furan, reference compound], which “average absorbance at 254 nm” value ([3]; 132 μM) is on record?
**A.** less than 0.001

**Q.** What about the “change in relative fluorescence intensity” value ([4]; 33 μM furan) of the same molecule?
**A.** < 20%

**Q.** What about the “change in relative fluorescence intensity” value ([4]; 66 μM furan) of the same molecule?
**A.** < 20%

**Q.** With `O=C(O)c1cc(O)c(O)c(O)c1` [gallic acid, 3,4,5-trihydroxybenzoic acid] as the molecule, how does the “microbial count after exposure to UV light” value (E. coli BL-21) read?
**A.** undetectable

**Q.** Which “reduction of E. coli 0157:H7” value (E. coli 0157:H7) does the source give for Acidified sodium chlorite here?
**A.** ≤ 5 log
